Experimental data as given in the supplement of paper PMC10477900.
Counter-ions that a name gives are not always drawn.

Legend:
[1] = test system: HCT116; details: 72 h
Procedure: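 HCT116 control and MTA1-KO (CRISPR) HCT116 cells were seeded in 384-well plates (800 cells/well), treated 16 h later with 237 metabolism-related anticancer drugs at five doses (10 uM, 2 uM, 400 nM, 80 nM, 16 nM) for 72 h, two replicates; viability by CCK8. Values are % inhibition of viability relative to untreated cells, plus fitted IC50.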

[2] = test system: HCT116; test: viability inhibition vs untreated; higher = more cytotoxic; details: 72 h

| SMILES | IC50 ([1]; genotype: MTA1-KO) | IC50 ([1]; genotype: control) | viability inhibition ([2]; genotype: MTA1-KO, 16 nM) | viability inhibition ([2]; genotype: MTA1-KO, 80 nM) | viability inhibition ([2]; genotype: MTA1-KO, 400 nM) | viability inhibition ([2]; genotype: MTA1-KO, 2000 nM) | viability inhibition ([2]; genotype: MTA1-KO, 10000 nM) | viability inhibition ([2]; genotype: control, 16 nM) | viability inhibition ([2]; genotype: control, 80 nM) | viability inhibition ([2]; genotype: control, 400 nM) | viability inhibition ([2]; genotype: control, 2000 nM) | viability inhibition ([2]; genotype: control, 10000 nM) |
| --- | --- | --- | --- | --- | --- | --- | --- | --- | --- | --- | --- | --- |
| Clc1ccccc1C(c1ccccc1)(c1ccccc1)n1ccnc1 [Clotrimazole] | > 10 µM | > 10 µM | -16.8% | -16.8% | -15% | -23.3% | -4.67% | 0.201% | -0.602% | -4.37% | -8.31% | 2.92% |
| N[C@@H]1C[C@H]1c1ccccc1 [Tranylcypromine (2-PCPA) hydrochloride] | > 10 µM | > 10 µM | -22.8% | -17.9% | -14.3% | -18.2% | -15.3% | -0.159% | -12.9% | -1.62% | -5.71% | -28% |
| CC1=NS(=O)(=O)c2cc(Cl)ccc2N1 [Diazoxide] | > 10 µM | > 10 µM | 7.55% | 5.32% | 16.2% | 16% | 35.1% | 3.13% | 23.2% | 0.951% | 4.98% | 3.64% |
| Nc1ccc(-c2ccc3ncc4ccc(=O)n(-c5cccc(C(F)(F)F)c5)c4c3c2)cn1 [Torin 2] | 0.134 µM | 0.289 µM | -2.56% | 37.4% | 77.4% | 88.6% | 104% | -9.67% | 18.6% | 72.5% | 87% | 108% |
| CC[C@H](CC#N)OC(=O)N[C@@H](C)c1cccc(NC(=O)Nc2ccc(-c3cnco3)c(OC)c2)c1 [AVN944] | 0.311 µM | 0.131 µM | 5.16% | 4.61% | 58.7% | 80.9% | 93.7% | -0.119% | 29.5% | 75.2% | 92.9% | 96.3% |
| COc1cc(/C=C/C(=O)CC(=O)/C=C/c2ccc(O)c(OC)c2)ccc1O [Curcumin] | 7.8 µM | 7.85 µM | -19.2% | -16.2% | -19.6% | -14.2% | 61.7% | -1.96% | 7.36% | -4.61% | 4.83% | 60.8% |
| CCC(=O)Nc1cccc(Oc2nc(Nc3ccc(N4CCN(C)CC4)cc3OC)ncc2Cl)c1 [WZ4003] | > 10 µM | > 10 µM | -5.75% | -20% | -8% | -5.19% | 8.72% | 8.56% | -15.4% | -4.38% | -7.1% | 12.2% |
| COc1cnc(NS(=O)(=O)c2ccc(N)cc2)nc1 [Sulfameter] | > 10 µM | > 10 µM | -10.8% | -13.8% | -0.547% | -4.82% | -3.61% | 0.414% | 5.13% | 12.1% | 8.51% | 0.478% |
| CC(=O)N=c1sc(S(N)(=O)=O)nn1C [Methazolamide] | > 10 µM | > 10 µM | -8.89% | -28.2% | -14.6% | -23.2% | -21.9% | 6.26% | -6.63% | -3.65% | -3.04% | -0.243% |
| CCNC(=O)Nc1ccc(-c2nc(N3CCOC[C@@H]3C)c3c(n2)C(C)(C)S(=O)(=O)C3)cc1 [CZ415] | 0.501 µM | 0.552 µM | -6.27% | -12.8% | 23.6% | 61.9% | 75.6% | -5.97% | 12.9% | 20.8% | 61.7% | 60.1% |
| CNc1cc(-c2cccc(Cl)c2Cl)nc(N)n1 [TH287 hydrochloride] | 1.6 µM | 1.9 µM | 18.9% | 15.8% | 23% | 65.5% | 94.7% | 4.08% | 10.5% | 1.79% | 63.9% | 87.3% |
| CC1=C(/C=C/C(C)=C/C=C/C(C)=C/C(=O)Nc2ccc(O)cc2)C(C)(C)CCC1 [Fenretinide] | > 10 µM | > 10 µM | -13% | -18.5% | -15% | -14.4% | -2.3% | 23.7% | 2.62% | 1.09% | 9.79% | 15.3% |
| CCN[C@H]1C[C@H](C)S(=O)(=O)c2sc(S(N)(=O)=O)cc21 [Dorzolamide hydrochloride] | > 10 µM | > 10 µM | -14.8% | -12.5% | -7.44% | -8.97% | -17.4% | -5.26% | -2.58% | -9.91% | -10% | -10.3% |
| N[C@@H](CCC(=O)N[C@@H](CS)C(=O)NCC(=O)O)C(=O)O [Glutathione] | > 10 µM | > 10 µM | -21.2% | -27.6% | -21.1% | -16.6% | -21.7% | 8.47% | 0.941% | -7.27% | 8.72% | 5.08% |
| O=c1cc(N2CCOCC2)oc2c(-c3ccc4c(c3)OCCO4)csc12 [SF2523] | 8.68 µM | 9.37 µM | 7.25% | -7.41% | -9.52% | -14.8% | 68.1% | -25.2% | -16.4% | -24% | -23.1% | 55.5% |
| O=C(Cc1cccc(OC(F)(F)F)c1)Nc1ccc(CCCCc2nnc(NC(=O)Cc3ccccn3)s2)nn1 [CB839] | > 10 µM | > 10 µM | -4.17% | 2.28% | -14.1% | 1.81% | 3.54% | 0.501% | 13.6% | 24% | 20.5% | 20.2% |
| C[C@]12CC[C@H](O)C[C@H]1CC[C@@H]1[C@@H]2CC[C@]2(C)[C@@H](c3ccc(=O)oc3)CC[C@]12O [Bufalin] | 0.143 µM | < 0.016 µM | 15.4% | 39% | 58.6% | 83.8% | 91% | 65.7% | 67.6% | 69.3% | 77.6% | 80.9% |
| O=C1c2cccc(O)c2C(=O)c2c(O)cccc21 [Antrapurol] | > 10 µM | > 10 µM | 7.43% | -5.62% | -8.24% | -0.432% | 0.85% | 1.11% | -7.37% | -11.3% | -10.5% | 29.6% |
